Three compounds from patent US7456197B2, “Pyridinium cationic lipids as gene transfer agents” (The Texas A&M University System, priority 2003, dated 2008) can be followed below.

Entries after “also recorded” stand apart in the source; their conditions may differ.

In general, melting point refers to the temperature of the solid-liquid transition.

Series [1] relates to lung cancer cell line NCI-H23. Briefly: Luciferase (pGL3) transfection efficiency of lipoplexes, NCI-H23. The series is classed as cell-based, human. To be noted: 5Myr/Chol 1:1, PBS, sonicated two sequences of 15 minutes, FIG. 5. How it is done:
The three series of cationic lipids newly synthesized were assessed for their transfection efficiency in vitro, using the experimental conditions optimized in a previous study.^23 Essentially the cationic lipids were mixed with cholesterol at a 1:1 molar ratio, dissolved in chloroform/methanol and dried under vacuum to generate a lipid film. The dried lipid film was hydrated with sterile phosphate buffer isotonic saline with pH=7.4 (PBS) and sonicated to yield cationic liposomes. The resulting liposomal solution was allowed to react with a DNA solution to form the final cationic lipid-DNA complexes (lipoplexes), which were assessed for transfection efficiency using different cell cultures. We used a pGL3 plasmid (Promega, Madison, Wisc.), encoding a firefly luciferase gene under the control of the constitutively active SV40 promoter as the reporter for the transfection efficiency. An optimal^23 electrostatic charge ratio cationic lipid/DNA of 2:1 was used in all preparations. […] The ability of these new cationic lipids to generate relatively small cationic liposomes could be attributed to the relatively large curvature radius induced in the bilayer by the bulky pyridinium cationic head.
(§1) Dioleoylphosphatidylethanolamine (DOPE), cholesterol (CHOL), N-(2,3-dioleoyloxypropyl)-N,N,N-trimethylammonium chloride (DOTAP) were commercial products. The purity of the lipids was checked by thin layer chromatography and also by differential scanning calorimetry (DSC), which was also used for determining the critical temperature Tc. For the preparation of the liposomes a protocol optimized for this type of compounds was adopted as follows. The cationic lipid (with or without helper lipid) was dissolved in chloroform/methanol (2/1, v/v) to reach a final concentration of 1 mM for the charged species. From this stock solution 50 μL were aliquoted in a 1 mL tube and the solvent was evaporated in a SpeedVac evaporator, under vacuum, for 1 h. The dried lipid film was prepared by removing the traces of organic solvent in a dessicator, over Drierite®, under vacuum, overnight. The film was hydrated with 500 μL sterile phosphate buffer saline (PBS) the tube was purged with sterile N2, and vortexed for 1 minute. The liposomes were generated by sonicating the tube in a water bath sonicator for 5-30 minutes at 62° C. and at 37° C. for DOTAP. After sonication the preparations were allowed to reach room temperature.
For generating the lipoplexes, 1.4-2.8 μL plasmid DNA solution (0.5 μg/μL) was diluted with 100 μL Optimem®. A liposome solution was prepared separately by diluting the initial liposomal stock solution (0.1 mM in cationic lipid) with Optimem® in specified proportions, to reach a final volume of 50 μL. Over this liposome solution 50 μL of the DNA stock solution was added, the tube was incubated for 30 minutes at room temperature and then the content diluted with 500 μL Optimem® (final volume of the lipoplex stock solution: 600 μL).
The lipoplexes was tested for their transfection properties over five different cancer cell lines—breast carcinoma (MCF-7 and MDA-Mb231), lung carcinoma (NCI-H23), prostate carcinoma (DU-145) and brain carcinoma (SWB-95). The cells were maintained in 10% fetal bovine serum (FBS)—enriched RPMI 1640 at 37° C. and 5% CO2 in a humidified atmosphere. Twenty-four hours prior to transfection the cells were transferred in 96-wells microtiter plate at a density of 20,000 cells/well. Each well received 100 μL medium and the plate was incubated in the same conditions. All experiments were done in triplicate or quadruplicate.
Immediately before transfection the medium was removed from each well and the cells were briefly washed with 200 μL sterile PBS. After removal of the PBS each well received 100 μL lipoplex stock solution and the plate was placed in the incubator for 1 hour. Then, 100 μL medium was added to each well and the plate was incubated for 24 hours. […]

The subject of another series is cancer cell line NCI-H23. Put plainly: WST-1 viability assay of transfected cells. It is filed as cell-based, human. How it is done: FIG. 6. Viability assay results for the cancer cell line NCI-H23 transfected with 5AMyr-5EMyr and DOTAP (Cl^−)-based lipoplexes. The other characteristics were the same as in the transfection experiment represented in FIG. 5.
In order to assess the cytotoxicity associated with every anion, a WST-1^28 viability assay was conducted in parallel.
A general note: Tetrazolium assays rely on reduction of a dye to a coloured formazan, in cell work by metabolically active cells.

Series [2] can be described thus: Critical (phase transition) temperature Tc by differential scanning calorimetry. It is filed as physicochemical. How it is done:
General. Melting points for the diols and the phase transition temperature Tc for the cationic lipids were determined by differential scanning calorimetry (DSC), using a TA-Instruments Q100 DSC, and a heating rate of 5° C./minute. The IR spectra were recorded on a Nicolet Avatar 360 FTIR spectrophotometer in the range 650-4000 cm^−1 using a ZnSe—attenuated total reflectance (ATR) accessory. The compounds were solved in a small amount of solvent (MeOH for the diols, CHCl3 for the lipids), and the resulted solutions were left to evaporate to dryness on the surface of the ZnSe crystals of the ATR accessory. The NMR spectra were recorded at ≈303 K with a Varian Inova spectrometer equipped with a 5 mm indirect detection probe, operating at 500 MHz for ^1H-NMR and at 125 MHz for ^13C-NMR. Chemical shifts are reported as δ values, using TMS as internal standard for proton spectra and the solvent resonance for carbon spectra. Assignments were made based on signal intensity, selective decoupling, COSY (^1H-^1H) and HETCOR (^1H-^13C) sequences. Elemental analyses were performed by combustion, using a Perkin Elmer 2400 Series II CHNS analyser.
as §1
Materials and Methods. Melting points for the diols, acetates and ketals were determined on a Boetius heating plate microscope and are uncorrected. For the cationic lipids 21 and 25 the phase transition temperature Tc was determined by differential scanning calorimetry (DSC), using a TA-Instruments Q100 DSC, and a heating rate of 5° C./minute. The IR spectra were recorded on a Nicolet Avatar 360 FTIR spectrophotometer, in the range 650-4000 cm^−1, using a ZnSe—attenuated total reflectance (ATR) accessory. The compounds were solved in a small amount of solvent (MeOH for the diols, CHCl3 for the esters), the resulted solutions being left to evaporate to dryness on the surface of the ZnSe crystals of the ATR accessory. This technique was imposed by the poor results obtained in transmission mode for some of the compounds, due to the lack of crystallization, hygroscopicity and other problems related with working with KBr pellets. The NMR spectra were recorded at ≈303 K with a Varian Gemini 300BB spectrometer operating at 300 MHz for ^1H and at 75 MHz for ^13C. Chemical shifts are reported as δ values, using TMS as internal standard for proton spectra and the solvent resonance for carbon spectra: 77.00 ppm in CDCl3, 39.50 ppm in DMSO-d6, the line from 123.50 ppm in pyridine-d5, 62.80 ppm in nitromethane-d3, 30.10 ppm in dimethylformamide-d7. Assignments were made based on signal intensity, selective decoupling and COSY (^1H-^1H) and HETCOR (^1H-^13C) sequences. Nitrogen elemental analysis was performed by combustion, mixing the samples with small amounts of quartz sand.
Background: DSC measures the heat that a sample takes up or gives off during a temperature scan.

Series [3] has as its system lung cancer cell line NCI-H23. Briefly: Luciferase (pGL3) transfection efficiency of lipoplexes, NCI-H23. The series is classed as cell-based, human. To be noted: exposure from one hour to three hours; data not shown.
The subject of series [4] is HeLa cells (human carcinoma cell line ATCC No. CCL-2). Briefly: Luciferase (pGL3-Control) transfection efficiency, HeLa cells. It is filed as cell-based. To be noted: no helper lipid, DOTAP as reference. As for the experimental part: Transfection experiments were carried out in vitro on HeLa cells (human carcinoma cell line ATCC No. CCL-2), using a pGL3-Control plasmid (Promega, Madison, Wisc.), which encodes the firefly luciferase reporter. The structurally related and commercially available DOTAP (2) mentioned earlier was chosen as reference.
HeLa cell line was obtained from ATCC, MD. The plasmid pGL3-control, encoding a firefly luciferase reporter was from Promega (Madison, Wisc.). As transfection reference we used N-[1-(2,3-dioleoyloxy)propyl]-N,N,N-trimethylammonium methylsulfate (DOTAP), obtained from Roche Molecular Biochemicals (Indianapolis, Ind.). The BCA protein assay kit was from Pierce (Rockford, Ill.).
All of the pyridinium cationic lipids, along with the DOTAP reference, were tested in triplicate in two independent assays. The pyridinium cationic lipids containing tetrafluoroborate (BF4^−) or perchlorate (ClO4^−) anion were dissolved in ethanol/chloroform. The lipid solution was evaporated to dryness using a Speedvac rotary evaporating device, under vacuum. Traces of solvents were removed from the lipid film by keeping the vials under vacuum for another 3 hours. Ultrapure water was added to the dry lipid film, so that a final 1 μg/μL concentration could be reached, and the lipid film was allowed to hydrate overnight. […]

For `CC(=O)OCC(COC(C)=O)[n+]1c(C)cc(C)cc1C.F[B-](F)(F)F`, the melting point lay within 110 to 111 °C.
On to `CCCCCCCCCCCCCC(=O)OCC(COC(=O)CCCCCCCCCCCCC)[n+]1c(C)cc(C)cc1C.[Cl-]` [Lipid 5DMyr, 1-(1,3-dimyristoyloxypropane-2-yl)-2,4,6-trimethylpyridinium chloride], for which the “transfection efficiency, counterion study” value in series [1] is given as “surpassed DOTAP in transfection efficiency”. Also, the “cytotoxicity (WST-1 viability)” value in the series on cancer cell line NCI-H23 (NCI-H23 transfected with lipoplexes, Chol 1:1, FIG. 6) was “minimum cytotoxicity; also recorded: lower cytotoxic effect”. Besides, in the series on cancer cell line NCI-H23 (exposure from one hour to three hours, data not shown), the “cytotoxic effect on longer cell exposure to lipoplexes” value is on record as “without any visible cytotoxic effect”. Besides, the “Tc (critical temperature), Pure” value in series [2] (pure lipid) worked out at 76.3 °C. Further, in series [2] (with cholesterol, 1:1 molar ratio), the “Tc (critical temperature), With cholesterol (1:1 molar ratio)” value amounted to 81.2 °C. In addition, the “transfection efficiency on longer cell exposure to lipoplexes” value in series [3] is on record as “higher transfection efficiencies”.
For `CCCCCCCCCCCCCCCC(=O)OCC(COC(=O)CCCCCCCCCCCCCCC)[n+]1c(C)cc(C)cc1C.F[B-](F)(F)F` [Lipid 25AbP, 1-(1,3-Dipamitoyloxypropane-2-yl)-2,4,6-trimethylpyridinium tetrafluoroborate], the “transfection efficiency (in words)” value in series [4] was “comparable with that of DOTAP”. Also, the “Tc (phase transition temperature)” value in series [2] (lipids 21 and 25, DSC, heating rate 5° C./minute) is 70 °C.
